Measurements from patent US6562791B1, “Glucopyranoside, process for isolation thereof, pharmaceutical composition containing same and use thereof” (Council of Scientific and Industrial Research, priority 2002, dated 2003).

Test system: 18 hour fasted Wistar rats
Test: hypoglycaemic activity in 18 hour fasted Wistar rats
Assay type: in vivo
Conditions: for mean fall (blood glucose): compound at 15 mg/kg p.o., chlorpropamide positive control, dose not given
Experimental: The compound was evaluated for hypoglycaemic activity in 18 hour fasted Wistar rats. […] The mean fall recorded was 24 mg/100 ml blood, from an initial mean of 91 to mean of 67 mg/100 ml blood.

SMILES: CCCNC(=O)NS(=O)(=O)c1ccc(Cl)cc1 [chlorpropamide, reference compound]
- mean fall (blood glucose): 18 mg/100 ml blood

SMILES: OC[C@H]1O[C@@H](c2c(O)ccc3cc(Cc4ccc(O)cc4)oc23)[C@H](O)[C@@H](O)[C@@H]1O [formula 1, 6-hydroxy-2-p-hydroxybenzylbenzofuran-7-C-β-D-glucopyranoside]
- hypoglycaemic effect (15 mg/kg p.o.): hypoglycaemic effect was recorded in all the treated rats
- mean blood level after treatment (15 mg/kg p.o., after treatment): 67 mg/100 ml blood
- mean fall (blood glucose): 24 mg/100 ml blood
- initial mean blood level (initial value of the treated group): 91 mg/100 ml blood
